Data as given in patent US20240261333A1, “NOVEL TARGETS FOR ENHANCING ANTI-TUMOR IMMUNITY” (THE BROAD INSTITUTE, INC., priority 2021, published 2024).

Assays:
[1] = system: A375 cells overexpressing B3GNT2; assay: Intra- and extra-cellular poly-LacNAc by tomato lectin staining, flow cytometry; format: cell-based, human; conditions: A375 overexpressing B3GNT2, pretreated with different concentrations of inhibitor
Description: (§1) For glycosylation inhibition, cells were treated with 20 μg/mL Kifunensine (Cayman Chemical 10009437) or 2 mM Benzyl 2-acetamido-2-deoxy-alpha-D-galactopyranoside (BAG; Millipore Sigma B4894-100MG) for 48 h to inhibit N- and O-glycosylation respectively unless otherwise indicated. For MCL1 inhibition, cells were treated with 1-10 μM of S63845 (Selleck Chemicals S8383) or AZD5991 (Selleck Chemicals S8643) for 4 h before incubation with T cells. Both glycosylation and MCL1 inhibitors were maintained at indicated concentrations during co-culture with T cells.
Per condition, 5×10^5 cells were pelleted at 200×g for 5 min and washed once with PBS. Cell were fixed in 4% Formaldehyde in PBS at 4° C. for 10 mins. […] For each sample, 10,000 cells were analyzed on a CytoFLEX Flow Cytometer (Beckman Coulter) and quantified with FlowJo (FlowJo). For each experiment, median fluorescence values for 3 biological replicates were compared to determine statistical significance.

[2] = system: ESO T cells co-cultured with A375 cells; assay: IFNγ ELISA in culture media of the T cell cytotoxicity assay; format: cell-based, human; conditions: B3GNT2-overexpressing A375 pretreated with inhibitor, E:T ratio of 3; kifunensine having a stronger effect
Description: Expanded T cells were thawed and maintained in culture media for 8-10 h before incubation with cancer cells. Cancer cells were seeded in 96-well plates and allowed to attach for 3-4 h before T cells were added at the appropriate effector to target cell (E:T) ratio. Paired controls with no T cells added were included for each condition. After 18 h, cancer cells were washed twice with PBS to remove T cells, passaged, and cultured for 2 days. Primary patient-derived cell models were not passaged after T cell co-culture. Viability was measured using CellTiter-Glo (Promega G7571). For each E:T ratio, percent survival was calculated as viability of the cells incubated with T cells divided by viability of the paired control that was not incubated with T cells. […]
To challenge cells with cytokines, cells were incubated with Interferon-γ (IFNγ; Cell Signaling Technology 80385S), FasL (AdipoGen AG-40B-0130-3010), TRAIL (R&D Systems 375-TL-010), or TNF-α (AdipoGen AG-40B-0019-3010) for 24 h. […] Cell viability was measured using CellTiter-Glo (Promega G7571) and protein was harvested for Western blots. […] IFNγ in the cell culture media of the T cell cytotoxic assay was quantified using an ELISA kit (Thermo Fisher Scientific KHC4021). […]

[3] = system: A375 (NY-ESO-1+, HLA-A2+) melanoma cells; assay: T cell cytotoxicity assay (CellTiter-Glo), A375 against ESO T cells; format: cell-based, human; conditions: B3GNT2-overexpressing A375 pretreated with inhibitor, E:T ratio of 3, kifunensine having a stronger effect
Description: Expanded T cells were thawed and maintained in culture media for 8-10 h before incubation with cancer cells. Cancer cells were seeded in 96-well plates and allowed to attach for 3-4 h before T cells were added at the appropriate effector to target cell (E:T) ratio. Paired controls with no T cells added were included for each condition. After 18 h, cancer cells were washed twice with PBS to remove T cells, passaged, and cultured for 2 days. Primary patient-derived cell models were not passaged after T cell co-culture. Viability was measured using CellTiter-Glo (Promega G7571). For each E:T ratio, percent survival was calculated as viability of the cells incubated with T cells divided by viability of the paired control that was not incubated with T cells. For example, CD274-overexpressing melanoma cells that were co-cultured with ESO T cells were compared to CD274-overexpressing melanoma cells that were cultured without T cells in parallel. As an alternative cytotoxicity assay, A375 cells stably expressing Gaussia luciferase were co-cultured with ESO T cells. At each time point, 10% of cell culture media was used for the Gaussia luciferase assay (Targeting Systems GAR-2B) to directly measure cytotoxicity.
as §1

[4] = system: A375 cells overexpressing B3GNT2; assay: Binding of recombinant T cell proteins to A375 cells, flow cytometry; format: cell-based, human; conditions: B3GNT2-overexpressing A375 treated with inhibitor; CD2, 4-1BB, TREML2, NKG2D
Description: as §1
Per condition, 5×10^5 cells were pelleted at 200×g for 5 min and washed once with PBS. Cell were fixed in 4% Formaldehyde in PBS at 4° C. for 10 mins. Cells were washed twice with PBS and resuspended in PBS with 25 μg/mL recombinant Fc chimera proteins [PVRIG (R&D Systems 9365-PV-050), CD226 (R&D Systems 666-DN-050), NKG2D (R&D 1299-NK-050), TREML2 (R&D Systems 3259-TL-050), CD2 (R&D Systems 1856-CD-050), CD96 (R&D Systems 9360-CD-050), TIGIT (BPS Bioscience 71186), CD27 (BPS Bioscience 71176), or 4-1BB (TNFRSF9; Sino Bio 10041-H03H)], 0.1 μg/mL HLA-A2:NY-ESO-1 Fab (Stewart-Jones et al., 2009), 5 μg/mL Fas antibody (Millipore Sigma 05-201), 25 μg/mL TNFRSF10B antibody (Novus Biologicals NB100-56618, 1:200), or Dylight 649 labeled Tomato Lectin (Vector Laboratories DL-1178, 1:100). Cells were incubated at 4° C. for 1 h. Cells were washed twice with PBS and resuspended in PBS with the appropriate secondary antibody [IgG Fc PE (Thermo Fisher Scientific 12-4998-82, 1:50), His Tag Alexa Fluor 647 (Thermo Fisher Scientific MA121315A647), mouse Alexa Fluor 568 (Thermo Fisher Scientific A-11031), or rabbit Alexa Fluor 647 (Thermo Fisher Scientific A-21244)]. Cells stained with Tomato Lectin were not incubated with additional secondary antibodies. […] For each sample, 10,000 cells were analyzed on a CytoFLEX Flow Cytometer (Beckman Coulter) and quantified with FlowJo (FlowJo). For each experiment, median fluorescence values for 3 biological replicates were compared to determine statistical significance.

N-glycan synthesis = conditions: cited from earlier work

| Molecule | poly-LacNAc measured by tomato lectin staining [1] | T cell IFNγ secretion [2] | Cell survival against T cell cytotoxicity [3] | Binding of recombinant T cell proteins to A375 cells [4] | Inhibition of N-glycan synthesis (N-glycan synthesis) |
| --- | --- | --- | --- | --- | --- |
| CC(=O)N[C@H]1[C@@H](OCc2ccccc2)O[C@H](CO)[C@H](O)[C@@H]1O [BAG, benzyl-2-acetamido-2-deoxy-α-D-galactopyranoside] | reduced poly-LacNAc added by B3GNT2 in a dosage-dependent manner | increased T cell IFNγ secretion | reduced A375 survival | rescued the reduction in T cell protein binding |  |
| tunicamycin |  |  |  |  | potent inhibitor of N-glycan synthesis |
